Source: paper PMC7791840, “The R-enantiomer of ketorolac reduces ovarian cancer tumor burden in vivo” (BMC Cancer, 2021)
“Also recorded” adds a separate entry of the source. Structures can show the parent of a compound that is named as a salt.

What was measured:
[1] = biological target: T1, Rac1 (Homo sapiens, UniProt P63000); experiment: Flow cytometric GTPase effector binding assay in tumor lysates (Rac1); type: in vivo; conditions: oral 1 mg/kg twice daily, 2 weeks; vs placebo
T1 construct: Frozen tumor samples were lysed without thawing; from tissue; host or cells: peritoneal SKOV3ip-GFP xenograft tumours from treated mice
Procedure: (§1) GTPase effector binding assays were carried out according to the protocols described previously. Frozen tumor samples were lysed without thawing with the addition of RIPA lysis buffer with the following modifications (no β-glycerphosphate,1 mM NaF and protease, 1% (v/v) NP-40 (nonyl phenoxypolyethoxylethanol) inhibitors consisting 10 μg/ml each of chymostatin, leupeptin, pepstatin and antipain). Protein concentrations were determined using GLISA quick protein concentration kit and lysates were adjusted to uniform protein concentrations of 0.5 mg/ml. Insoluble debris was removed by centrifugation at 14,000 RPM in a cold microfuge and the supernatants were incubated with GTPase effector coated beads (PAK1-PBD for Cdc42 and Rac1) for 1 h at 4 °C with rotation. Primary antibodies directed against Cdc42 or Rac1 and secondary antibody Alexa 488 were incubated with the beads for 1 h. Fluorescence intensity MCF (mean channel fluorescence) was used to measure the amount of active intracellular GTPase. MCF was measured by flow cytometry (Accuri C6, BD Biosciences). GTPase activity was calculated as (MCFsample group – MCFunstimulated negative control) / MCFstimulated positive control.

[2] = tested on: ovarian tumor cell; set-up: method as in PMID 26071482, PMID 26558612, PMID 26206334; conditions: cited from earlier work
[3] = tested on: SKOV3ip-GFP cells; experiment: Two-week intraperitoneal tumor growth model (tumor burden); type: in vivo, mice; conditions: 1 mg/kg twice daily oral, 14 days, vs placebo
Description: For two-week tumor studies, 1 × 10^6 non-treated SKOV3ip-GFP cells were i.p. injected. All mice started R-ketorolac treatment one day prior to cell injection and continued treatment until conclusion of the study 14 days later. Mice were imaged using a Light Tools imaging system (Synopsys Optical Solutions, Westminster CO) with long pass GFP filters. Three images per mouse were captured to ensure all tumors were counted. Green fluorescent tumors were identified and counted in the peritoneal cavity as single tumors if there was a distinct border of non-fluorescent tissue. Tumor burden of the omentum occurred either as one large tumor or a bundle of tumors and was not included in the final analysis of tumor number. Total tumor counts from the peritoneal cavity were normalized to placebo treated animals within individual experiments. Blood was collected via cardiac puncture and ketorolac enantiomer concentrations were measured by HPLC analysis as described in Supplemental Methods (Additional File 1: Supplemental Methods). […]

[4] = tested on: COX-1; set-up: method as in PMID 26558612, PMID 10027870; conditions: cited from earlier work
[5] = biological target: T2, Cdc42 (Homo sapiens, UniProt P60953); experiment: Flow cytometric GTPase effector binding assay in tumor lysates (Cdc42); type: in vivo; conditions: oral 1 mg/kg twice daily, 2 weeks; vs placebo
T2 construct: Frozen tumor samples were lysed without thawing; from tissue; host or cells: peritoneal SKOV3ip-GFP xenograft tumours from treated mice
Procedure: as §1

[6] = mouse, in vivo
Procedure: Foxn1^nu NU /J athymic nude female mice, aged 6–9 weeks, were purchased from The Jackson Laboratory (Bar Harbor, ME, stock number 002019). […] Mice were maintained at a controlled temperature of 22–23 °C, with a 12-h light/12-h dark cycle. Water and standard mouse chow were available ad libitum. […] Their health status was monitored throughout the experiment. […] Mice were euthanized using a CO2 chamber in accordance with the recommendation of the Panel on Euthanasia of the American Veterinary Medical Association. Cervical dislocation was then carried out to confirm death before tumor analysis and tissue collection.

[7] = tested on: SKOV3ip-GFP cells; experiment: Measurement of omental weight; type: in vivo, mice; conditions: two-week tumor study, 1 mg/kg twice daily; no significant differences between groups
Description: page 1: SUPPLEMENTAL METHODS Cell Culture and Reagents SKOV3ip cells were modified to express GFP-Rac1 by transfection with pcDNA3-EGFP-Rac1- wt (Catalog # 12980, Addgene) as described for SKOV3ip-GFP cells under Methods. Rac1 overexpression quantification and verification was completed by western blot and qPCR. SKOV3ip-GFP and SKOV3ip-GFP-Rac1 cell populations were further enriched by flow sorting for GFP positive cells. SKOV3ip-GFP-Rac1 cell lines were maintained under the same selection as described for SKOV3ip-GFP cells (Methods). In vivo Drug Dosing Racemic (R-/S-) ketorolac tromethamine salt was purchased from Sigma (St. Louis MO, cat# K1136), S-ketorolac was purchased from Toronto Research Chemicals (Toronto Canada, cat# K235602) and dissolved in water or 100% ethanol, respectively . Mice received twice daily […] mg/kg of body weight. Measurement of Omental Weight Omental tissue was harvested and stored on ice in PBS for no more than 1 hour before analysis. Omenta were blotted dry on lab tissue and weight was measured using an analytical balance (Denver Instruments Company, A -160). There was a non-significant decreasing trend in omental weight for treated mice when compared to placebo mice ( Additional File 3: Table S1). […] Ketorolac was detected using a UV spectrometer set at UV310. […]

T2 sequence (P60953 whole entry): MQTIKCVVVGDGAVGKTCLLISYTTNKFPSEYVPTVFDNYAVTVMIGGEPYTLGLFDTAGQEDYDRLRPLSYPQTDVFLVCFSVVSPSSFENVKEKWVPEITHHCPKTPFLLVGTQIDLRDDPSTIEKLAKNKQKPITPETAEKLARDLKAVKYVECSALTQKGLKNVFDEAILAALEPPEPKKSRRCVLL

| Compound | Rac1 GTPase activity in tumor lysates [1] | Ovarian tumor cell adhesion, migration and invadopodia formation [2] | Cytotoxicity ([2]; ovarian tumor cells) | Tumor burden (tumor implants within the peritoneal cavity) [3] | IC50 [4] [µM] | Cdc42 GTPase activity in tumor lysates [5] | Body weight [6] | Omental weight, Mean ± SD [7] [g] | Tumor burden (tumor implants within the peritoneal cavity) ([3]; listed as Racemic drug) |
| --- | --- | --- | --- | --- | --- | --- | --- | --- | --- |
| O=C(c1ccccc1)c1ccc2n1CC[C@H]2C(=O)O [R-ketorolac] | significantly decreased | inhibited ovarian tumor cell adhesion, migration and invadopodia formation | without cytotoxicity | significantly fewer tumor implants; also recorded: significantly decreased tumor burden | > 100 | significantly decreased | No significant difference in body weight | 0.059 ± 0.018 |  |
| O=C(c1ccccc1)c1ccc2n1CCC2C(=O)O (stereo not drawn) [R−/S-ketorolac, ketorolac tromethamine salt] | Inhibition of the target GTPases was evident |  |  |  |  | Inhibition of the target GTPases was evident |  | 0.058 ± 0.026 | significantly decreased tumor burden |
